Results published in the NIST ThermoML archive (doi:10.1021/je050261u).
Numbers after ± are expanded uncertainties.

Test: xn = mol fraction of the nth substance listed
Settings: Liquid, Vibrating tube method, x1 = 1

CCO [ethanol] + CCCCCCC
mass density [kg/m3]
Settings | 293.15 K | 303.15 K | 313.15 K | 323.15 K | 333.15 K
100 kPa | 789.4 ± 1 | 781.1 ± 1 | 772.3 ± 1 | 763.1 ± 1 | 754.2 ± 1
5000 kPa | 793.5 ± 1 | 785.7 ± 1 | 776.9 ± 1 | 768 ± 1 | 759.4 ± 1
10000 kPa | 797.5 ± 1 | 789.8 ± 1 | 781.5 ± 1 | 772.9 ± 1 | 764.6 ± 1
15000 kPa | 801.4 ± 1 | 794 ± 1 | 785.8 ± 1 | 777.3 ± 1 | 769.4 ± 1
20000 kPa | 805.2 ± 1 | 797.8 ± 1 | 789.8 ± 1 | 781.4 ± 1 | 773.8 ± 1
25000 kPa | 808.7 ± 1 | 801.6 ± 1 | 793.7 ± 1 | 785.7 ± 1.1 | 777.8 ± 1.1
30000 kPa | 812.1 ± 1.1 | 805 ± 1.1 | 797.4 ± 1.1 | 789.4 ± 1.1 | 781.7 ± 1.1
35000 kPa | 815.3 ± 1.1 | 808.5 ± 1.1 | 801 ± 1.1 | 793.1 ± 1.1 | 785.6 ± 1.1
40000 kPa | 818.6 ± 1.1 | 811.8 ± 1.1 | 804.4 ± 1.1 | 796.7 ± 1.1 | 789.3 ± 1.1
45000 kPa | 821.6 ± 1.1 | 814.9 ± 1.1 | 807.8 ± 1.1 | 800.1 ± 1.1 | 792.8 ± 1.1
50000 kPa | 824.6 ± 1.1 | 817.9 ± 1.1 | 810.8 ± 1.1 | 803.5 ± 1.1 | 796.3 ± 1.1
55000 kPa | 827.5 ± 1.1 | 821.1 ± 1.1 | 813.7 ± 1.1 | 806.6 ± 1.1 | 799.7 ± 1.1
60000 kPa | 830.2 ± 1.1 | 824 ± 1.1 | 816.6 ± 1.1 | 809.7 ± 1.1 | 802.9 ± 1.1
65000 kPa | 832.9 ± 1.1 | 826.7 ± 1.1 | 819.5 ± 1.1 | 812.6 ± 1.1 | 806 ± 1.1
